The source of these data is US9932303B2, “N-hydroxymethanesulfonamide nitroxyl donors” (Cardioxyl Pharmaceuticals, Inc., priority 2014, dated 2018).

The nature of data set [1]: In vitro stability in human plasma. Type of data set: in vitro ADME. Conditions: pH 7.4, 37° C.; for half-life at 5 μM: male, read-out: T1/2 (minutes) Human. On the procedure:
(§1) Certain compounds from Table 1 were tested for their stability in plasma. The assay system comprised (i) PBS, or plasma from rat, dog or human (at least 3 donors, male, pooled) at pH 7.4, and (ii) for tests conducted in plasma, an anticoagulant (sodium heparin or sodium citrate). Each test compound (5 μM) was incubated in PBS or plasma at 37° C. on a THERMOMIXER® with shaking Three samples (n=3) were taken at each of seven sampling time points: 0, 10, 30, 60, 90, 180 and 360 minutes. The samples were immediately combined with 3 volumes (i.e., 3 times the volume of PBS or plasma) of acetonitrile containing 1% formic acid and an internal standard to terminate the reaction. AB SCIEX API 3000 LC-MS/MS analysis of the test compounds was performed without a standard curve. Half-lives (T1/2) of the test compounds were determined from graphs of the percent remaining values using the peak area response ratio.

A short description of data set [2]: In vitro stability in rat plasma. Type of data set: in vitro ADME. To be noted: pH 7.4, 37° C.; for half-life at 5 μM: male, read-out: T1/2 (minutes) Rat. As to the method:
as §1

Data set [3] in a line: In vitro stability in dog plasma. Type of data set: in vitro ADME. To be noted: pH 7.4, 37° C.; for half-life at 5 μM: male, read-out: T1/2 (minutes) Dog. On the procedure:
as §1

Data set [4] in a line: Nitroxyl production via N2O headspace analysis (GC). To be noted: PBS, 37° C. An excerpt:
Nitrous oxide (N2O) is produced via the dimerization and dehydration of HNO, and is the most common marker for nitroxyl production (Fukuto et al., Chem. Res. Toxicol. 18:790-801 (2005)). […] Using either nitrous oxide gas or Angeli's salt (AS) as a standard, the relative amounts of N2O released from N-hydroxymethanesulfonamide nitroxyl donating compounds was examined via gas chromatography (GC) headspace analysis.
A procedure for determining the relative amounts of N2O released from N-hydroxymethanesulfonamide nitroxyl donating compounds is as follows. GC was performed on an Agilent gas chromatograph equipped with a split injector (10:1 splitting), microelectron capture detector, and a HP-MOLSIV 30 m×0.32 mm×25 μm molecular sieve capillary column. Helium was used as the carrier (4 mL/min) gas and nitrogen was used as the make-up (20 mL/min) gas. […]
All determinations used a batch of nominal 20 mL headspace vials with volumes pre-measured for sample uniformity (actual vial volume varied by ≤2.0% relative standard deviation (n=6)). The average vial volume for the batch was determined from six randomly-selected vials by calculating the weight difference between the capped and sealed empty (i.e., air-filled) vial and the capped and sealed deionized water-filled vial using the known density of deionized water, then averaging. […]

Data set [5] has as its system patients with systolic heart failure. Conditions: cited from earlier work.

For orientation: melting point means the temperature, or range, at which the solid turns liquid. In the case of `Cc1cccc(CS(=O)(=O)NO)c1` [Compound 5, N-Hydroxy-1-(3-methylphenyl)methanesulfonamide], the melting point amounted to 98 °C. The half-life at 5 μM in data set [1] was 81 min. In addition, in data set [2], the half-life at 5 μM was 61 min. The half-life at 5 μM in data set [3] is 55 min.
`O=S(=O)(Cc1ccccc1F)NO` [Compound 14, 1-(2-Fluorophenyl)-N-hydroxymethanesulfonamide] had a melting point of 118 °C. Also, in data set [3], the half-life at 5 μM was 31 min.
As for `O=S(=O)(Cc1cccc(Cl)c1)NO` [Compound 3, 1-(3-Chlorophenyl)-N-hydroxymethanesulfonamide], the melting point was 150 °C. Besides, the half-life at 5 μM in data set [1] came to 52 min. In addition, in data set [2], the half-life at 5 μM is 40 min. Besides, in data set [3], the half-life at 5 μM came to 70 min.
Turning to `O=[N+]([O-])c1ccccc1CS(=O)(=O)NO` [Compound 1, N-Hydroxy-1-(2-nitrophenyl)methanesulfonamide], the melting point was determined as 163 °C. Further, the “Relative N2O Yield (90 minute incubation)” value in data set [4] is recorded as 37%. In addition, the half-life at 5 μM in data set [3] was 26 min.
For the compound `CC(C)(c1ccc(Cl)cc1)S(=O)(=O)NO` [Compound 28, 2-(4-Chlorophenyl)-N-hydroxypropane-2-sulfonamide], the “T1/2 (minutes) Human” value in data set [1] (5 μM) amounted to 37 min. Further, the “T1/2 (minutes) Rat” value in data set [2] (5 μM) worked out at 48 min. Also, the “T1/2 (minutes) Dog” value in data set [3] (5 μM) was 26 min.
In the case of `CS(=O)(=O)c1ccccc1S(=O)(=O)NO` [CXL-1020, N-hydroxy-2-methanesulfonylbenzene-1-sulfonamide], in data set [5] (at threshold doses needed to produce hemodynamic effects, intravenous), the side effects entry is “unacceptable levels of inflammatory irritation at and distal to the intravenous insertion site”. The hemodynamic effects result in data set [5] (patients with systolic heart failure, intravenously as an aqueous solution at pH=4) is “reduced both left and right heart filling pressures and systemic vascular resistance, while increasing cardiac and stroke volume index”.
As to `O=S(=O)(Cc1cccc(C(F)(F)F)c1)NO` [Compound 17, N-Hydroxy-1-[3-(trifluoromethyl)phenyl]methanesulfonamide], the melting point is 132 °C. Also, the half-life at 5 μM in data set [3] amounted to 29 min.
`O=S(=O)(NO)C1(c2ccc(Cl)cc2)CC1` [Compound 29, 1-(4-Chlorophenyl)-N-hydroxycyclopropane-1-sulfonamide] gave a melting point of 138 °C.
The compound `O=S(=O)(Cc1cc(Cl)ccc1Cl)NO` [Compound 10, 1-(2,5-Dichlorophenyl)-N-hydroxymethanesulfonamide] had a melting point of 158 °C. In data set [1], the half-life at 5 μM came to 12 min. In addition, in data set [2], the half-life at 5 μM came to 12 min. For the same compound, the half-life at 5 μM in data set [3] came out at 27 min.
`O=S(=O)(Cc1ccc(Cl)cc1Cl)NO` [Compound 11, 1-(2,4-Dichlorophenyl)-N-hydroxymethanesulfonamide] displayed a melting point of 158 °C. The half-life at 5 μM in data set [3] came out at 45 min.
In the case of `O=S(=O)(Cc1ccc(C(F)(F)F)cc1)NO` [Compound 18, N-Hydroxy-1-[4-(trifluoromethyl)phenyl]methanesulfonamide], the melting point came out at 156 °C. Moreover, in data set [1], the half-life at 5 μM was determined as 33 min. In addition, the half-life at 5 μM in data set [2] stood at 42 min. Further, the half-life at 5 μM in data set [3] is 74 min.
In the same order, the values of `O=S(=O)(Cc1ccccc1Cl)NO` [Compound 4, 1-(2-Chlorophenyl)-N-hydroxymethanesulfonamide] are 124 °C, 28 min, 38 min and 36 min.
On the same counts, the results for `O=S(=O)(Cc1ccc(Cl)c(Cl)c1)NO` [Compound 12, 1-(3,4-Dichlorophenyl)-N-hydroxymethanesulfonamide] are 175 °C, 34 min, 54 min and 60 min.
Turning to `O=S(=O)(Cc1cccc(Br)c1)NO` [Compound 15, 1-(3-Bromophenyl)-N-hydroxymethanesulfonamide], the melting point turned out to be 161 °C. Also, the half-life at 5 μM in data set [3] amounted to 45 min.
On the same counts, the results for `O=S(=O)(Cc1cc(F)cc(F)c1)NO` [Compound 20, 1-(3,5-Difluorophenyl)-N-hydroxymethanesulfonamide] are 136 °C and 33 min.
For `CC(c1ccc(Cl)cc1)S(=O)(=O)NO` (centres unmarked) [Compound 27, 1-(4-Chlorophenyl)-N-hydroxyethanesulfonamide], the melting point amounted to 129 °C.
In turn, `O=S(=O)(Cc1cccc(F)c1)NO` [Compound 13, 1-(3-Fluorophenyl)-N-hydroxymethanesulfonamide] returned a melting point of 109 °C. For the same compound, the half-life at 5 μM in data set [3] was 42 min.
`O=S(=O)(Cc1noc2ccccc12)NO` [Compound 22, 1-1,2-Benzoxazol-3-yl-N-hydroxymethanesulfonamide] registered a melting point of 143 °C. In addition, in data set [1], the half-life at 5 μM is 25 min. Further, the half-life at 5 μM in data set [2] came to 18 min. In data set [3], the half-life at 5 μM worked out at 21 min.
With `O=S(=O)(Cc1c(Cl)cccc1Cl)NO` [Compound 21, 1-(2,6-Dichlorophenyl)-N-hydroxymethanesulfonamide], the melting point stood at 140 °C.
On to `O=S(=O)(Cc1cc(F)ccc1F)NO` [Compound 9, 1-(2,5-Difluorophenyl)-N-hydroxymethanesulfonamide], for which the melting point was determined as 125 °C. In data set [3], the half-life at 5 μM came to 30 min.
In the same order, the values of `O=S(=O)(Cc1ccccc1C(F)(F)F)NO` [Compound 7, N-Hydroxy-1-[2-(trifluoromethyl)phenyl]methanesulfonamide] are 123 °C and 25 min.
As for `O=S(=O)(Cc1c(F)cccc1Cl)NO` [Compound 19, 1-(2-Chloro-6-fluorophenyl)-N-hydroxymethanesulfonamide], the melting point stood at 127 °C.
Regarding `O=S(=O)(Cc1ccc(F)cc1)NO` [Compound 6, 1-(4-Fluorophenyl)-N-hydroxymethanesulfonamide], the melting point came out at 158 °C. Also, the half-life at 5 μM in data set [3] amounted to 34 min.
In turn, `O=S(=O)(Cc1ccc(Br)cc1)NO` [Compound 16, 1-(4-Bromophenyl)-N-hydroxymethanesulfonamide] yielded a melting point of 160 °C. In addition, in data set [3], the half-life at 5 μM was determined as 42 min.
The compound `O=S(=O)(Cc1ccc(F)cc1F)NO` [Compound 8, 1-(2,4-Difluorophenyl)-N-hydroxymethanesulfonamide] had a melting point of 166 °C. Also, in data set [1], the half-life at 5 μM was determined as 31 min. The half-life at 5 μM in data set [2] is 36 min. For the same compound, in data set [3], the half-life at 5 μM was 46 min.
`O=S(=O)(Cc1ccc2oncc2c1)NO` [Compound 26, 1-(Benzo[d]isoxazol-5-yl)-N-hydroxymethanesulfonamide] yielded a melting point of 117 °C.
